For experiment [1], the system named is acetaminophen-induced liver damage. The experiment can be described thus: Effect on acetaminophen-induced liver damage. As to conditions: for s-GOT, mean ± S.E. / s-GPT, mean ± S.E. / s-GOT percent inhibition (figure in parentheses) / s-GPT percent inhibition (figure in parentheses): male SD rats; for s-GOT, mean ± S.E. / s-GPT, mean ± S.E.: 0.5 mmole/kg orally 1 hour before acetaminophen 300 mg/kg i.p., serum after 24 hours; for s-GOT percent inhibition (figure in parentheses) / s-GPT percent inhibition (figure in parentheses): vs physiological saline control. It counts as in vivo, rat. As for the experimental part:
Method: Male SD rats (body weights about 180 g) purchased from Shizuoka Laboratory Animal Center were used as test animals. The test substance was orally administered (0.5 mmole/kg), and after 1 hour, acetaminophen 300 mg/kg was intraperitoneally administered. After 24 hours, the blood was drawn from the abdominal aorta of each rat and the serum was separated and determined for s-GOT and GPT.

The subject of experiment [2] is carrageenin-induced conjunctival edema. The experiment can be described thus: Effect on carrageenin-induced conjunctival edema. It counts as in vivo, rat. As to conditions: male Wistar rats; for % Inhibition (conjunctival edema): 30 mg/kg i.v., vs physiological saline control; for Conjunctival edema weight (mg ± S.E): test substance 30 mg/5 ml/kg i.v. 1 minute before subconjunctival 1% carrageenin, n=10. As for the experimental part: Method: Male Wistar rats (body weight about 120 g) purchased from Shizuoka Laboratory Animal Center were used as test animals. Each animal was anesthesized with pentobarbital 6 mg/kg i.p. and a solution of the test substance in physiological saline was intravenously administered (30 mg/5 ml/kg). After 1 minute, 50 μl of a 1% solution of carrageenin in physiological saline was injected subconjunctivally. After 3 minutes, the rat was sacrificed and the carrageenin-induced conjunctival edema was weighed.

The test system of experiment [3] is rat back passive anaphylactic reaction. As to the kind of experiment: Effect on rat back passive anaphylactic reaction. It counts as in vivo. As to conditions: male Wistar rats; for % Inhibition (passive anaphylactic reaction): 30 mg/kg i.v., vs physiological saline control; for Absorbance (extracted Evans blue dye), mean ± S.E.: 30 mg/kg into caudal vein 1 minute before antigen, dye extracted after 30 minutes, n=5. As for the experimental part: Method: Male Wistar rats (body weight about 130 g) purchased from Shizuoka Laboratory Animal Center were used as test animals. The back hair of each rat was clipped off and the antiserum was injected intradermally at the back. After 3 days, the test substance 30 mg/kg was injected into the caudal vein (control: physiological saline). One minute later, 1 ml of a 50:50 mixture of 1% egg white albumin and 2% Evans blue in physiological saline was intravenously administered as the antigen to induce a passive anaphylactic reaction. After 30 minutes, the rat was sacrificed, the stained area of the rat back was isolated the dye was extracted with 10 ml of formamide to determine the amount of the dye.

For `CCCCOC(=O)CC(CSC[C@H](NC(=O)CC[C@H](N)C(=O)O)C(=O)NCC(=O)OC(C)C)C(=O)OCCCC` (stereo partly drawn) [R1 = C3 H7, R2 = R3 = C4 H9, S-(2,3-Dicarbo-n-butoxypropyl)glutathione isopropyl ester], the “Efficacy on acetaminophen-induced liver damage (in words)” value in experiment [1] (0.5 mmole/kg orally, rats) is reported as “significant effect”. Moreover, in experiment [1], the “s-GOT, mean ± S.E.” value was determined as 309 ± 105 and the “s-GPT, mean ± S.E.” value is on record as 86 ± 31. In addition, in experiment [1] (0.5 mmole/kg orally), the “s-GOT percent inhibition (figure in parentheses)” value (from here on “s-GOT percent inhibition”) was 88.4% and the “s-GPT percent inhibition (figure in parentheses)” value (“s-GPT percent inhibition” for short) is recorded as 70.9%.

In the case of `CC(C)OC(=O)CNC(=O)[C@H](CSC(CC(N)=O)C(N)=O)NC(=O)CC[C@H](N)C(=O)O` (stereo partly drawn) [R1 = C3 H7, R2 = R3 = NH2, S-(1,2-Dicarbamoylethyl)glutathioneisopropyl ester], in experiment [2], the “% Inhibition (conjunctival edema)” value was found to be 26.2% and the “Conjunctival edema weight (mg ± S.E)” value is 58.2 ± 1.4 mg. In experiment [3], the “% Inhibition (passive anaphylactic reaction)” value amounted to 43.6% and the “Absorbance (extracted Evans blue dye), mean ± S.E.” value (“Absorbance” for short) is given as 0.492 ± 0.083. In addition, in experiment [1], the “s-GOT, mean ± S.E.” value came out at 1760 ± 911 and the “s-GPT, mean ± S.E.” value came to 740 ± 394. In experiment [1] (0.5 mmole/kg orally), the “s-GOT percent inhibition” value worked out at 59.8% and the “s-GPT percent inhibition” value is on record as 46.7%.

For the compound `CCOC(=O)CC(SC[C@H](NC(=O)CC[C@H](N)C(=O)O)C(=O)NCC(=O)OC(C)C)C(=O)OCC` (stereo partly drawn) [R1 = C3 H7, R2 = R3 = OC2 H5, γ-L-Glutamyl-[S-(1,2-dicarbethoxyethyl)]-L-cystinylglycine isopropyl ester], in experiment [2], the “% Inhibition (conjunctival edema)” value is 23.7% and the “Conjunctival edema weight (mg ± S.E)” value is on record as 60.2 ± 1.2 mg. Also, in experiment [3], the “% Inhibition (passive anaphylactic reaction)” value amounted to 44.6% and the “Absorbance” value is on record as 0.484 ± 0.093. For the same compound, in experiment [1], the “s-GOT, mean ± S.E.” value worked out at 394 ± 178 and the “s-GPT, mean ± S.E.” value worked out at 111 ± 51. Moreover, in experiment [1] (0.5 mmole/kg orally), the “s-GOT percent inhibition” value amounted to 91.0% and the “s-GPT percent inhibition” value came out at 92.0%.

In the case of `CCCCOC(=O)CC(SC[C@H](NC(=O)CC[C@H](N)C(=O)O)C(=O)NCC(=O)OC(C)C)C(=O)OCCCC` (stereo partly drawn) [R1 = C3 H7, R2 = R3 = OC4 H9, S-(1,2-Dicarbo-n-butoxyethyl)glutathione isopropyl ester], in experiment [2], the “% Inhibition (conjunctival edema)” value turned out to be 1.9% and the “Conjunctival edema weight (mg ± S.E)” value amounted to 77.4 ± 4.0 mg. In addition, in experiment [3], the “% Inhibition (passive anaphylactic reaction)” value turned out to be 43.6% and the “Absorbance” value stood at 0.492 ± 0.094. For the same compound, in experiment [1], the “s-GOT, mean ± S.E.” value was determined as 178 ± 64 and the “s-GPT, mean ± S.E.” value came out at 45 ± 11. Further, in experiment [1] (0.5 mmole/kg orally), the “s-GOT percent inhibition” value turned out to be 95.9% and the “s-GPT percent inhibition” value worked out at 96.8%.

As to `CC(C)OC(=O)CNC(=O)[C@H](CSC1CC(=O)NC1=O)NC(=O)CC[C@H](N)C(=O)O` (stereo partly drawn) [R1 = C3 H7, R2 R3 = NH, S-[(1,2-Dicarboximido)ethyl]glutathione isopropyl ester], in experiment [2], the “% Inhibition (conjunctival edema)” value came to 21.4% and the “Conjunctival edema weight (mg ± S.E)” value worked out at 62.0 ± 1.6 mg. Moreover, in experiment [3], the “% Inhibition (passive anaphylactic reaction)” value worked out at 26.5% and the “Absorbance” value is 0.642 ± 0.141.

Consider `NC(=O)CC(SC[C@H](NC(=O)CC[C@H](N)C(=O)O)C(=O)NCC(=O)O)C(N)=O` (stereo partly drawn) [R1 = H, R2 = R3 = NH2, S-(1,2-Dicarbamoylethyl)glutathione], for which, in experiment [2], the “% Inhibition (conjunctival edema)” value came to 5.4% and the “Conjunctival edema weight (mg ± S.E)” value is recorded as 67.1 ± 3.8 mg. Further, in experiment [3], the “% Inhibition (passive anaphylactic reaction)” value turned out to be 35.3% and the “Absorbance” value turned out to be 0.565 ± 0.162. Besides, in experiment [1], the “s-GOT, mean ± S.E.” value was 591 ± 155 and the “s-GPT, mean ± S.E.” value was found to be 147 ± 48. Moreover, in experiment [1] (0.5 mmole/kg orally), the “s-GOT percent inhibition” value was found to be 78.9% and the “s-GPT percent inhibition” value amounted to 79.1%.

For `CCN1C(=O)CC(SC[C@H](NC(=O)CC[C@H](N)C(=O)O)C(=O)NCC(=O)O)C1=O` (stereo partly drawn) [R1 = H, R2 R3 = N--C2 H5, S-[N-Ethyl-2,5-dioxopyrrolidin-3-yl]glutathione], in experiment [2], the “% Inhibition (conjunctival edema)” value amounted to 9.9% and the “Conjunctival edema weight (mg ± S.E)” value is recorded as 63.9 ± 3.6 mg. In experiment [3], the “% Inhibition (passive anaphylactic reaction)” value is recorded as 41.1% and the “Absorbance” value came out at 0.514 ± 0.050.

As to `N[C@@H](CCC(=O)N[C@@H](CSC1CC(=O)NC1=O)C(=O)NCC(=O)O)C(=O)O` (stereo partly drawn) [R1 = H, R2 R3 = NH, S-[(1,2-Dicarboximido)ethyl]glutathione], in experiment [2], the “% Inhibition (conjunctival edema)” value is listed as 9.9% and the “Conjunctival edema weight (mg ± S.E)” value is 63.9 ± 4.1 mg. Moreover, in experiment [3], the “% Inhibition (passive anaphylactic reaction)” value is 47.4% and the “Absorbance” value turned out to be 0.459 ± 0.104. Also, in experiment [1], the “s-GOT, mean ± S.E.” value amounted to 1288 ± 316 and the “s-GPT, mean ± S.E.” value was 351 ± 82. In experiment [1] (0.5 mmole/kg orally), the “s-GOT percent inhibition” value is 54.0% and the “s-GPT percent inhibition” value is given as 50.1%.

In the case of “S-(1,2-Dicarboxyethyl)glutathioneisopropyl ester [R1 = C3 H7, R2 = R3 = OH]”, in experiment [2], the “% Inhibition (conjunctival edema)” value came to 19.0% and the “Conjunctival edema weight (mg ± S.E)” value was determined as 63.9 ± 3.6 mg. In addition, in experiment [3], the “% Inhibition (passive anaphylactic reaction)” value worked out at 47.7% and the “Absorbance” value is given as 0.457 ± 0.055. Also, in experiment [1], the “s-GOT, mean ± S.E.” value was found to be 929 ± 500 and the “s-GPT, mean ± S.E.” value came to 404 ± 278. Besides, in experiment [1] (0.5 mmole/kg orally), the “s-GOT percent inhibition” value was 78.8% and the “s-GPT percent inhibition” value stood at 70.9%.

Take “S-[1-(or 2)Carboxy-2-(or 1)carbamoylethyl]glutathione”: in experiment [2], the “% Inhibition (conjunctival edema)” value is recorded as 9.6% and the “Conjunctival edema weight (mg ± S.E)” value was 64.1 ± 4.2 mg. In experiment [3], the “% Inhibition (passive anaphylactic reaction)” value is recorded as 43.4% and the “Absorbance” value was found to be 0.494 ± 0.066.

Values taken from patent US5541162A, “Glutathione derivatives” (Senju Pharmaceutical Co., Ltd., priority 1990, dated 1996).
